Laboratory results taken from patent US4746667A, “Pharmaceutical composition containing 2-(2-benzimidazolyl thiomethyl) pyridine” (priority 1981, dated 1988).

System: gastric acid secretion
Assay: Gastric Acid Secretion Inhibiting Effect on Conscious Dogs
Format: in vivo
Details: Canis lupus familiaris, oral (stomach tube), free base suspended in 0.5% Methocel, histamine-stimulated conscious Heidenhain pouch dogs, gastric juice collected 3 hours; for inhibition in vivo at 2 µmol/kg: dose 2 μmol/kg; for inhibition in vivo at 8 µmol/kg: dose 8 μmol/kg
Experimental: Gastric Acid Secretion Inhibiting Effect on Conscious Dogs
Chronic gastric fistula dogs (Heidenhain pouch dogs) were used. These dogs have been surgically provided with a gastric cannula in the pouch. Following a 4 weeks' recovery period after surgery, tests were performed once a week on each dog. Food and water were withdrawn 18 hours before each test.
Gastric acid secretion was induced by continuous infusion of histamine at individual doses (100-300 μmol/kg, h), resulting in submaximal secretion of gastric acid. At least 2 hours after onset of stimulation, when the gastric acid secertion had reached a steady level, the test compounds in the form of free base suspended in 0.5% Methocel® (90 HG, 15.000, Dow Chem. corp.), were given orally by stomach tube. The gastric juice was collected by free flow from the gastric cannula in consecutive 30 minutes samples for 3 hours. The samples were titrated to pH 7.0 with 0.1M NaOH using a Radio-meter automatic titrator and the acid output was calculated.
The percent inhibition of acid secretion was calculated by comparing in each dog the acid output in the tests to the acid output in control tests when only the vehicle was given.

SMILES	inhibition in vivo at 2 µmol/kg	inhibition in vivo at 8 µmol/kg
COC(=O)c1cc2nc(SCc3ncc(C)c(OC)c3C)[nH]c2cc1C [5-COOCH3,6-CH3, H, CH3, OCH3, CH3, 2-[2-(3,5-dimethyl-4-methoxy)pyridylmethylthio]-(5-carbomethoxy-6-methyl)benzimidazole]	80%	
CC(=O)c1cc2nc(SCc3cc(C)c(C)cn3)[nH]c2cc1C [5-COCH3,6-CH3, H, H, CH3, CH3]		80%
COC(=O)c1ccc2[nH]c(SCc3ncc(C)c(OC)c3C)nc2c1 [5-COOCH3, H, H, CH3, OCH3, CH3]		50%
COc1ccc2[nH]c(SCc3ncc(C)c(C)c3C)nc2c1 [5-OCH3, H, H, CH3, CH3, CH3]	75%	
COc1ccc2[nH]c(SCc3ncc(C)c(OC)c3C)nc2c1 [5-OCH3, H, H, CH3, OCH3, CH3, 2-[2-(3,5-dimethyl-4-methoxy)pyridylmethylthio]-(5-methoxy)benzimidazole]	75%	
COc1c(C)cnc(CSc2nc3cc(C(C)=O)ccc3[nH]2)c1C [5-COCH3, H, H, CH3, OCH3, CH3]		90%
COc1c(C)cnc(CSc2nc3cc(C)ccc3[nH]2)c1C [5-CH3, H, H, CH3, OCH3, CH3]	60%	
COc1c(C)cnc(CSc2nc3cc(C(C)=O)c(C)cc3[nH]2)c1C [5-COCH3,6-CH3, H, CH3, OCH3, CH3, 2-[2-(3,5-dimethyl-4-methoxy)pyridylmethylthio]-5-COCH3-6-CH3-benzimidazole]	35%	
